Data published in patent US12655125B2 (SIRONAX LTD., priority 2020, dated 2026).

System: HT-29 cells
Experiment: HT29 Cells 0FBS Assay In Vitro (TNF-α/SMAC mimetic/zVAD-FMK induced necroptosis, CellTiter-Glo cell viability)
Assay type: cell-based
Details: Homo sapiens, HT-29, 20 h, read-out: Cell activity (EC50) of Compounds 117-281
Outline: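 Viability was measured by ATP luminescence (CellTiter-Glo) after 20 h at 37° C of compound exposure in 10-point, 1:3 dilutions. Necroptosis in FBS-free HT-29 cultures was driven by a TNF-α (10 ng/ml), SMAC mimetic (6 μM) and zVAD-FMK (10 μM) cocktail. EC50 values are geometric means from duplicate curves.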

Row | Compound | EC50 [nM]
1 | CC(=O)Nc1cc(-c2cc(OC3CN(C(=O)N4N=CC[C@H]4c4cc(F)cc(F)c4)C3)c(F)cn2)n(C)n1 [compound 135] | 0.1 to 100

Same assay, conditions: Homo sapiens; HT-29 cells, FBS free medium, TNF-α (10 ng/ml), SMAC mimetic (6 uM), zVAD-FMK (10 μM), 20 hours; geometric mean EC50; read-out: Cell activity (EC50) of Compounds 1-116

Row | Compound | EC50 [nM]
2 | NC(=O)Cn1ccc(-c2ncc(F)c(OC3CN(C(=O)N4N=CC[C@H]4c4cc(F)cc(F)c4)C3)n2)n1 [compound 89, (S)-2-(3-(4-((1-(5-(3,5-difluorophenyl)-4,5-dihydro-1H-pyrazole-1-carbonyl)azetidin-3-yl)oxy)-5-fluoropyrimidin-2-yl)-1H-pyrazol-1-yl)acetamide] | 100 to 1000
3 | Cn1cncc1-c1ncc(F)c(OC2CN(C(=O)N3N=CC[C@H]3c3cc(F)cc(F)c3)C2)n1 [compound 8, (S)-(5-(3,5-difluorophenyl)-4,5-dihydro-1H-pyrazol-1-yl)(3-((5-fluoro-2-(1-methyl-1H-imidazol-5-yl)pyrimidin-4-yl)oxy)azetidin-1-yl)methanone] | 0.1 to 100
4 | Cn1ncc(C(=O)O)c1-c1cc(OC2CN(C(=O)N3N=CC[C@H]3c3cc(F)cc(F)c3)C2)c(F)cn1 [compound 65, (S)-5-(4-((1-(5-(3,5-difluorophenyl)-4,5-dihydro-1H-pyrazole-1-carbonyl)azetidin-3-yl)oxy)-5-fluoropyridin-2-yl)-1-methyl-1H-pyrazole-4-carboxylic acid] | 1000 to 10000
5 | CN(C)C(=O)CNc1cnn(C)c1-c1cc(OC2CN(C(=O)N3N=CC[C@H]3c3cc(F)cc(F)c3)C2)c(F)cn1 [compound 63, (S)-2-((5-(4-((1-(5-(3,5-difluorophenyl)-4,5-dihydro-1H-pyrazole-1-carbonyl)azetidin-3-yl)oxy)-5-fluoropyridin-2-yl)-1-methyl-1H-pyrazol-4-yl)amino)-N,N-dimethylacetamide] | 0.1 to 100
6 | Cc1cnn(C)c1-c1ccc(F)c(OC2CN(C(=O)N3N=CC[C@H]3c3cc(F)cc(F)c3)C2)c1 [compound 112, (S)-(5-(3,5-difluorophenyl)-4,5-dihydro-1H-pyrazol-1-yl)(3-(5-(1,4-dimethyl-1H-pyrazol-5-yl)-2-fluorophenoxy)azetidin-1-yl)methanone] | 0.1 to 100
7 | CN(C)CCNC(=O)c1cnn(C)c1-c1cc(OC2CN(C(=O)N3N=CC[C@H]3c3cc(F)cc(F)c3)C2)c(F)cn1 [compound 69, (S)-5-(4-((1-(5-(3,5-difluorophenyl)-4,5-dihydro-1H-pyrazole-1-carbonyl)azetidin-3-yl)oxy)-5-fluoropyridin-2-yl)-N-(2-(dimethylamino)ethyl)-1-methyl-1H-pyrazole-4-carboxamide] | 100 to 1000
8 | Cc1nnc(-c2ccc(F)c(OC3CN(C(=O)N4N=CC[C@H]4c4cc(F)cc(F)c4)C3)n2)s1 [compound 24, (S)-(5-(3,5-difluorophenyl)-4,5-dihydro-1H-pyrazol-1-yl)(3-((3-fluoro-6-(5-methyl-1,3,4-thiadiazol-2-yl)pyridin-2-yl)oxy)azetidin-1-yl)methanone] | 0.1 to 100
9 | Cn1ncc(C(=O)N2CCCCC2)c1-c1cc(OC2CN(C(=O)N3N=CC[C@H]3c3cc(F)cc(F)c3)C2)c(F)cn1 [compound 76, (S)-(5-(3,5-difluorophenyl)-4,5-dihydro-1H-pyrazol-1-yl)(3-((5-fluoro-2-(1-methyl-4-(piperidine-1-carbonyl)-1H-pyrazol-5-yl)pyridin-4-yl)oxy)azetidin-1-yl)methanone] | 1000 to 10000
10 | Cn1ncc(Cl)c1-c1cc(OC2CN(C(=O)N3N=CC[C@H]3c3cc(F)cc(F)c3)C2)c(F)cn1 [compound 83, (S)-(3-((2-(4-chloro-1-methyl-1H-pyrazol-5-yl)-5-fluoropyridin-4-yl)oxy)azetidin-1-yl)(5-(3,5-difluorophenyl)-4,5-dihydro-1H-pyrazol-1-yl)methanone] | 0.1 to 100
11 | Cc1nscc1-c1ncc(F)c(OC2CN(C(=O)N3N=CC[C@H]3c3cc(F)cc(F)c3)C2)n1 [compound 15, (S)-(5-(3,5-difluorophenyl)-4,5-dihydro-1H-pyrazol-1-yl)(3-((5-fluoro-2-(3-methylisothiazol-4-yl)pyrimidin-4-yl)oxy)azetidin-1-yl)methanone] | 0.1 to 100

Same assay, conditions: Homo sapiens; HT-29 cells, FBS free medium, TNF-α (10 ng/ml), SMAC mimetic (6 uM), zVAD-FMK (10 μM), 20 hours; geometric mean EC50; read-out: Cell activity (EC50) of Compounds 117-281

Row | Compound | EC50 [nM]
12 | CC(C)NC(=O)Nc1cnn(C)c1-c1cc(OC2CN(C(=O)N3N=CC[C@H]3c3cc(F)cc(F)c3)C2)c(F)cn1 [compound 141, (S)-1-(5-(4-((1-(5-(3,5-difluorophenyl)-4,5-dihydro-1H-pyrazole-1-carbonyl)azetidin-3-yl)oxy)-5-fluoropyridin-2-yl)-1-methyl-1H-pyrazol-4-yl)-3-isopropylurea] | 0.1 to 100
13 | Cc1nn(-c2cc(OC3CN(C(=O)N4N=CC[C@H]4c4cc(F)cc(F)c4)C3)c(F)cn2)c(C)c1NC(=O)C1CCOCC1 [compound 138] | 0.1 to 100
14 | Cc1nn(-c2cc(OC3CN(C(=O)N4N=CC[C@H]4c4cc(F)cc(F)c4)C3)c(F)cn2)c(C)c1C(=O)N(C)C [compound 192, (S)-1-(4-((1-(5-(3,5-difluorophenyl)-4,5-dihydro-1H-pyrazole-1-carbonyl)azetidin-3-yl)oxy)-5-fluoropyridin-2-yl)-N,N,3,5-tetramethyl-1H-pyrazole-4-carboxamide] | 0.1 to 100
15 | Cc1nn(-c2cc(OC3CN(C(=O)N4N=CC[C@H]4c4cc(F)cc(F)c4)C3)c(F)cn2)c(C)c1C#N [compound 151, (S)-1-(4-((1-(5-(3,5-difluorophenyl)-4,5-dihydro-1H-pyrazole-1-carbonyl)azetidin-3-yl)oxy)-5-fluoropyridin-2-yl)-3,5-dimethyl-1H-pyrazole-4-carbonitrile] | 0.1 to 100
16 | Cc1ccc(C)n1-c1cc(OC2CN(C(=O)N3N=CC[C@H]3c3cc(F)cc(F)c3)C2)c(F)cn1 [compound 147, (S)-(5-(3,5-difluorophenyl)-4,5-dihydro-1H-pyrazol-1-yl)(3-((2-(2,5-dimethyl-1H-pyrrol-1-yl)-5-fluoropyridin-4-yl)oxy)azetidin-1-yl)methanone] | 0.1 to 100
17 | Cc1nn(-c2cc(OC3CN(C(=O)N4N=CC[C@H]4c4cc(F)cc(F)c4)C3)c(F)cn2)c(C)c1C(=O)N1CCCCC1 [compound 183, (S)-(5-(3,5-difluorophenyl)-4,5-dihydro-1H-pyrazol-1-yl)(3-((2-(3,5-dimethyl-4-(piperidine-1-carbonyl)-1H-pyrazol-1-yl)-5-fluoropyridin-4-yl)oxy)azetidin-1-yl)methanone] | 0.1 to 100
18 | Cc1c(C(N)=O)cnn1-c1cc(OC2CN(C(=O)N3N=CC[C@H]3c3cc(F)cc(F)c3)C2)c(F)cn1 [compound 273, (S)-1-(4-((1-(5-(3,5-difluorophenyl)-4,5-dihydro-1H-pyrazole-1-carbonyl)azetidin-3-yl)oxy)-5-fluoropyridin-2-yl)-5-methyl-1H-pyrazole-4-carboxamide] | 0.1 to 100
19 | Cc1nn(CCO)c(C)c1-c1ncc(F)c(OC2CN(C(=O)N3N=CC[C@H]3c3cc(F)cc(F)c3)C2)n1 [compound 156, (S)-(5-(3,5-difluorophenyl)-4,5-dihydro-1H-pyrazol-1-yl)(3-((5-fluoro-2-(1-(2-hydroxyethyl)-3,5-dimethyl-1H-pyrazol-4-yl)pyrimidin-4-yl)oxy)azetidin-1-yl)methanone] | 0.1 to 100
20 | Cc1noc(C)c1-c1cc(OC2CN(C(=O)N3N=CC[C@H]3c3cc(F)cc(F)c3)C2)c(F)cn1 [compound 268, (S)-(5-(3,5-difluorophenyl)-4,5-dihydro-1H-pyrazol-1-yl)(3-((2-(3,5-dimethylisoxazol-4-yl)-5-fluoropyridin-4-yl)oxy)azetidin-1-yl)methanone] | 0.1 to 100
21 | Cc1c(-c2cc(OC3CN(C(=O)N4N=CC[C@H]4c4cc(F)cc(F)c4)C3)c(F)cn2)nn(C)c1C(=O)O [compound 245, (S)-3-(4-((1-(5-(3,5-difluorophenyl)-4,5-dihydro-1H-pyrazole-1-carbonyl)azetidin-3-yl)oxy)-5-fluoropyridin-2-yl)-1,4-dimethyl-1H-pyrazole-5-carboxylic acid] | 0.1 to 100
22 | Cc1nc(C(N)=O)c(C)n1-c1cc(OC2CN(C(=O)N3N=CC[C@H]3c3cc(F)cc(F)c3)C2)c(F)cn1 [compound 200, (S)-1-(4-((1-(5-(3,5-difluorophenyl)-4,5-dihydro-1H-pyrazole-1-carbonyl)azetidin-3-yl)oxy)-5-fluoropyridin-2-yl)-2,5-dimethyl-1H-imidazole-4-carboxamide] | 0.1 to 100
23 | Cc1nc(C)n(-c2cc(OC3CN(C(=O)N4N=CC[C@H]4c4cc(F)cc(F)c4)C3)c(F)cn2)c1C [compound 152, (S)-(5-(3,5-difluorophenyl)-4,5-dihydro-1H-pyrazol-1-yl)(3-((5-fluoro-2-(2,4,5-trimethyl-11H-imidazol-1-yl)pyridin-4-yl)oxy)azetidin-1-yl)methanone] | 0.1 to 100
24 | COCC(=O)Nc1cnn(C)c1-c1cc(OC2CN(C(=O)N3N=CC[C@H]3c3cc(F)cc(F)c3)C2)c(F)cn1 [compound 121, (S)—N-(5-(4-((1-(5-(3,5-difluorophenyl)-4,5-dihydro-1H-pyrazole-1-carbonyl)azetidin-3-yl)oxy)-5-fluoropyridin-2-yl)-1-methyl-1H-pyrazol-4-yl)-2-methoxyacetamide] | 0.1 to 100
25 | Cc1c(N)nn(C)c1-c1ccc(F)c(OC2CN(C(=O)N3N=CC[C@H]3c3cc(F)cc(F)c3)C2)n1 [compound 215, (S)-(3-((6-(3-amino-1,4-dimethyl-1H-pyrazol-5-yl)-3-fluoropyridin-2-yl)oxy)azetidin-1-yl)(5-(3,5-difluorophenyl)-4,5-dihydro-1H-pyrazol-1-yl)methanone] | 0.1 to 100
26 | Cc1nn(-c2cc(OC3CN(C(=O)N4N=CC[C@H]4c4cc(F)cc(F)c4)C3)c(F)cn2)c(C)c1CN1CCCC1=O [compound 274, (S)-1-((1-(4-((1-(5-(3,5-difluorophenyl)-4,5-dihydro-1H-pyrazole-1-carbonyl)azetidin-3-yl)oxy)-5-fluoropyridin-2-yl)-3,5-dimethyl-11H-pyrazol-4-yl)methyl)pyrrolidin-2-one] | 0.1 to 100
